Patent US20230141981A1, “NOVEL COMPOUNDS AND COMPOSITION FOR TARGETED THERAPY OF KIDNEY-ASSOCIATED CANCERS” (SHANGHAI MICURX PHARMACEUTICALS CO., LTD, priority 2020, published 2023)
One block for each molecule: values may come before it. Bridge positions count the residues as written; N and C are the ends. Square brackets hold non-standard residues; d marks the D form. Peptide text beside a SMILES is read from it. * marks the point of attachment. X1 = CNC(=O)c1ccccc1Sc1ccc2c(/C=C/c3ccccn3)nn(C(=O)N(CCNC(=O)CC[C@H](N)C(=O)O)CCC(=O)*)c2c1; X3 = CNC(=O)c1ccccc1Sc1ccc2c(/C=C/c3ccccn3)nn(C(=O)*)c2c1; Dab = NCC[C@H](N)C(=O)O

What was measured:
[1] = 14-days repeat-dose mouse tolerability test; settings: in vivo, 18 mg/kg/day, read-out: well-tolerated dose, 14-days repeat-dose
Description: In addition the high efficacy against renal cancers, such drug must be well-tolerated.

[2] = Mouse PK: axitinib concentration in blood plasma and kidney tissue post-administration; format: in vivo; settings: oral gavage, single dose 10 mg/kg
Method: Preferential accumulation of compounds provided herein in kidneys (or near the site of a kidney cancer) may be evaluated by pharmacokinetic (PK) tests, such as in a standard rat PK test.
In PK studies, the levels (concentration) of a therapeutic drug is determined in key body compartments, such as blood and select organ tissues, is determined over a given time course. […] For therapy of renal cancers, the targeted organ is kidney.

Caki-1 = assay: In vitro inhibition of cancer cells, CTG assay, 72 h; format: cell-based, human; settings: Caki-1, 72 h incubation
Description: In vitro activity of compounds provided herein may be assessed by standard testing procedures using various cancer cell lines (alongside normal cell comparators), such as described, for example, in ACS Pharmacol. Transl. Sci. 2019, vol. 2, p. 18; J. Med. Chem. 2018, vol. 61, p. 5304; and methods in references cited therein.
Therein, Caki-1 is a human clear cell renal cell carcinoma (ccRCC) line. The ACTHN cell line was derived from the pleural effusion of a patient with metastatic renal carcinoma. The 786-O cell line is a hypertriploid renal cancer cell carcinoma cell line. Generally, cells were plated into […] microplates and pre-incubated for 24 h. Subsequently, the test compound solutions were added, and cells growth inhibition analyzed with 9-point data plot. After 72 h of the incubation, the number and proportion of the viable cells was determined by CTG assay, and IC50 values calculated.

Structure (SMILES): CNC(=O)c1ccccc1Sc1ccc2c(/C=C/c3ccccn3)nn(C(=O)N(CCNC(=O)CC[C@H](N)C(=O)O)CCC(=O)N[C@H](C(=O)N[C@@H](CCN)C(=O)N[C@H]3CCNC(=O)[C@H]([C@@H](C)O)NC(=O)[C@H](CCN)NC(=O)[C@H](CCN)NC(=O)[C@H](CC(C)C)NC(=O)[C@@H](Cc4ccccc4)NC(=O)[C@H](CCN)NC3=O)[C@@H](C)O)c2c1 [Example 29] (X1-T[Dab][Dab][Dab][dF]L[Dab][Dab]T; lactam 3-C; N-terminus assumed)
MTD at 336 h [1]: ≥ 18 mg/kg/day

Blood Plasma Conc. (axitinib) ([2]; T = 4 h): T = 4 h: 95.1 ng/mL
Blood Plasma Conc. (axitinib) ([2]; T = 6 h): T = 6 h: 35.4 ng/mL
Structure (SMILES): CNC(=O)c1ccccc1Sc1ccc2c(/C=C/c3ccccn3)n[nH]c2c1 [Axitinib, N-methyl-2-[[3-[(E)-2-pyridin-2-ylethenyl]-1H-indazol-6-yl]sulfanyl]benzamide]

IC50 (Caki-1; Homo sapiens): 19.4 µM
Structure (SMILES): Cc1ccc(Nc2nccc(N(C)c3ccc4c(C)n(C)nc4c3)n2)cc1S(N)(=O)=O [Pazopanib, 5-[[4-[(2,3-dimethylindazol-6-yl)-methylamino]pyrimidin-2-yl]amino]-2-methylbenzenesulfonamide]

IC50 (Caki-1; Homo sapiens): 6.9 µM
Structure (SMILES): CCN(CC)CCNC(=O)c1c(C)[nH]c(/C=C2\C(=O)Nc3ccc(F)cc32)c1C [Sunitinib, (Z)—N-(2-(diethylamino)ethyl)-5-((5-fluoro-2-oxoindolin-3-ylidene)methyl)-2,4-dimethyl-1H-pyrrole-3-carboxamide]

IC50 (Caki-1): 8.6 µM
Structure (SMILES): CNC(=O)c1ccccc1Sc1ccc2c(/C=C/c3ccccn3)nn(C(=O)N[C@@H](CCN)C(=O)N[C@H](C(=O)N[C@@H](CCN)C(=O)N[C@H]3CCNC(=O)[C@H]([C@@H](C)O)NC(=O)[C@H](CCN)NC(=O)[C@H](CCN)NC(=O)[C@H](CC(C)C)NC(=O)[C@@H](Cc4ccccc4)NC(=O)[C@H](CCN)NC3=O)[C@@H](C)O)c2c1 [Example 17] (X3-[Dab]T[Dab][Dab][Dab][dF]L[Dab][Dab]T; lactam 4-C)
